Values of other authors as cited in publication PMC10928227, “Assessing biologic/toxicologic effects of extractables from plastic contact materials for advanced therapy manufacturing using cell painting assay and cytotoxicity screening” (Scientific Reports, 2024).
Read-outs that look alike come from different tables or passages of the source.

Conditions: cited from earlier work; for Gene mutation, Bacterial Reverse Mutation Assay (e.g. Ames Test): Salmonella typhimurium; for Risk based on in vitro genotoxicity data from database (from QSAR-toolbox): not checked for in vivo relevance, ref QSAR Toolbox 4.5 database
[1] = Strain TA 100, in Vitro, Database: Bacterial mutagenicity ISSSTY, ref CCRIS database,Toxnet databases (Romualdo Benigni)
[2] = Strain TA 102, in Vitro, Database: Bacterial mutagenicity ISSSTY, ref CCRIS database,Toxnet databases (Romualdo Benigni)
[3] = in Vitro, No Strain Information, Database Genotoxicity OASIS, ref Journal of Medicinal Chemistry 48 (1), pp. 312-32, 25, Kazius J, McGuire R., Bursi R

In the case of `CCCCCCCCCc1ccc(O)cc1` [104-40-5], the “Gene mutation, Bacterial Reverse Mutation Assay (e.g. Ames Test)” value (“Gene mutation … (e.g. Ames Test)” for short) [1] is listed as “Negative”, the “Gene mutation … (e.g. Ames Test)” value [2] is listed as “Negative” and the “Gene mutation … (e.g. Ames Test)” value [3] is listed as “Negative”. For the same compound, the “Gene mutation … (e.g. Ames Test)” value (in Vitro, Strain TA 97, Database Bacterial mutagenicity ISSSTY, ref CCRIS database,Toxnet databases, Romualdo Benigni, 02.5.2011) was “Negative”, the “Gene mutation … (e.g. Ames Test)” value (in Vitro, Strain TA 98, Database Bacterial mutagenicity ISSSTY, ref CCRIS database,Toxnet databases, Romualdo Benigni, 02.5.2011) was “Negative” and the “Gene mutation … (e.g. Ames Test)” value (in Vitro, Strain TA 100, Database Bacterial mutagenicity ISSSTY, ref CCRIS database,Toxnet databases, Romualdo Benigni, 02.5.2011) was “Negative”. The “Gene mutation … (e.g. Ames Test)” value (in Vitro, Strain TA 102, Database Bacterial mutagenicity ISSSTY, ref CCRIS database,Toxnet databases, Romualdo Benigni, 02.5.2011) was “Negative”, the “Gene mutation … (e.g. Ames Test)” value (in Vitro, Strain TA 104, Database Bacterial mutagenicity ISSSTY, ref CCRIS database,Toxnet databases, Romualdo Benigni, 02.5.2011) was “Negative” and the “Gene mutation … (e.g. Ames Test)” value (in Vitro, Strain TA 1535, Database Bacterial mutagenicity ISSSTY, ref CCRIS database,Toxnet databases, Romualdo Benigni, 02.5.2011) was “Negative”. For the same compound, the “Gene mutation … (e.g. Ames Test)” value (in Vitro, Strain TA 1537, Database Bacterial mutagenicity ISSSTY, ref CCRIS database,Toxnet databases, Romualdo Benigni, 02.5.2011) was “Negative” and the “Gene mutation … (e.g. Ames Test)” value (in Vitro, Strain TA 1538, Database Bacterial mutagenicity ISSSTY, ref CCRIS database,Toxnet databases, Romualdo Benigni, 02.5.2011) was “Negative”.
For `CCCC(C)=O` [107-87-9], the “Gene mutation … (e.g. Ames Test)” value (in Vitro, No Strain Information, Database Genotoxicity OASIS, ref J. Chem. Inf. Model., 2009, 49 (9), pp 2077–2081, Hansen K. et al.) is listed as “Negative”.
For `CCCCCCCC(=O)O` [124-07-2], the “Chromosome aberration, in Vitro Mammalian Chromosome Aberration Test” value (from here on “Chromosome aberration”) (in Vitro, Chinese hamster, Chinese Hamster Lung Cells, Guidelines For Screening Mutagenicity Testing of Chemicals (Chemical Substances Control Law of Japan), Database Toxicity Japan MHLW, ref Japan Ministry of Health Labour and Welfare, http://dra4.nihs.go.jp/mhlw_data/jsp/SearchPageENG.jsp) is given as “Negative”.
For `S=c1[nH]c2ccccc2s1` [149-30-4], the “Chromosome aberration” value (in Vitro, No Strain Information, Database Genotoxicity OASIS, ref Mutation Research 584 (2005) 1-256, Kirkland et al.) is listed as “Positive” and the “Gene mutation, Mammalian Cell Gene Mutation Assay” value (in Vitro, T-lymphoma Cell Lines, Database Genotoxicity OASIS, ref Mutation Research 584 (2005) 1-256, Kirkland et al.) is listed as “Positive”.
In the case of `CN1CCCC1=O` [872-50-4], the “Gene mutation … (e.g. Ames Test)” value (Strain TA 97, in Vitro, Database: Bacterial mutagenicity ISSSTY, ref CCRIS database,Toxnet databases (Romualdo Benigni)) is listed as “Negative”, the “Gene mutation … (e.g. Ames Test)” value (Strain TA 98, in Vitro, Database: Bacterial mutagenicity ISSSTY, ref CCRIS database,Toxnet databases (Romualdo Benigni)) is listed as “Negative” and the “Gene mutation … (e.g. Ames Test)” value [1] is listed as “Negative”. For the same compound, the “Gene mutation … (e.g. Ames Test)” value [2] was “Negative”, the “Gene mutation … (e.g. Ames Test)” value (Strain TA 104, in Vitro, Database: Bacterial mutagenicity ISSSTY, ref CCRIS database,Toxnet databases (Romualdo Benigni)) was “Negative” and the “Gene mutation … (e.g. Ames Test)” value (Strain TA 2638, in Vitro, Database: Bacterial mutagenicity ISSSTY, ref CCRIS database,Toxnet databases (Romualdo Benigni)) was “Negative”. The “Gene mutation … (e.g. Ames Test)” value [3] was “Negative”, the “Gene mutation … (e.g. Ames Test)” value (in Vitro, Strain TA 97, Database Genotoxicity OASIS, ref P&G) was “Negative” and the “Gene mutation … (e.g. Ames Test)” value (in Vitro, Strain TA 98, Database Genotoxicity OASIS, ref P&G) was “Negative”. For the same compound, the “Gene mutation … (e.g. Ames Test)” value (in Vitro, Strain TA 100, Database Genotoxicity OASIS, ref P&G) was “Negative”, the “Gene mutation … (e.g. Ames Test)” value (in Vitro, Strain TA 102, OECD Guideline 471, Database Genotoxicity OASIS, ref CCRIS database,Toxnet databases) was “Negative” and the “Gene mutation … (e.g. Ames Test)” value (in Vitro, Strain TA 1535, Database Genotoxicity OASIS, ref P&G) was “Negative”. The “Gene mutation … (e.g. Ames Test)” value (in Vitro, Strain TA 1537, Database Genotoxicity OASIS, ref P&G) was “Negative” and the “Gene mutation … (e.g. Ames Test)” value (in Vitro, Strain TA 1538, Database Genotoxicity OASIS, ref P&G) was “Negative”.
In the case of `Cc1cc(C)c(C(=O)P(=O)(c2ccccc2)c2ccccc2)c(C)c1` [75980-60-8], the “Chromosome aberration” value (in Vitro, Chinese hamster, Chinese Hamster Cells, Database Genotoxicity OASIS, ref Scientific Committee on Consumer Safety ( SCCS), 27 March 2014, SCCS/1528/14) is given as “Negative”.
In the case of `CC(=O)c1ccccc1` [Acetophenone], the “Risk based on in vitro genotoxicity data from database (from QSAR-toolbox)” value (“Risk based on in vitro genotoxicity data” below) is given as “Positive in vitro data”.
For `Nc1ccccc1` [Aniline], the “Risk based on in vitro genotoxicity data” value is given as “Positive in vitro data”.
For `OCc1ccccc1` [Benzylalcohol], the “Risk based on in vitro genotoxicity data” value is given as “Positive in vitro data”.
In the case of `CC(C)(c1ccc(O)cc1)c1ccc(O)cc1` [Bisphenol A], the “Risk based on in vitro genotoxicity data” value is given as “Positive in vitro data”.
For `Cc1cc(C(C)(C)C)c(O)c(C(C)(C)C)c1` [Butylated hydroxytoluene], the “Risk based on in vitro genotoxicity data” value is given as “Positive in vitro data”.
For `O=C1CCCCCN1` [Caprolactam], the “Risk based on in vitro genotoxicity data” value is listed as “Positive in vitro data”.
In the case of `Oc1ccccc1` [Phenol], the “Measured and predicted data (remark on genetic toxicity)” value (heading line of the measured and predicted data section, ref QSAR Toolbox database) is listed as “suspected of causing genetic defects” and the “Risk based on in vitro genotoxicity data” value is listed as “Positive in vitro data”.
